From BindingDB's records for doi:10.1021/jm801420y (St. Jude Children'S Research Hospital, 2009)

Target: not listed separately
Assay: Inhibition of SHH-mediated mouse C3H10T1/2 cells differentiation into osteoblasts by alkaline phosphatase assay

Row | IC50 [nM] | SMILES
1 | 2.8 | Cc1cccc(C)c1NC(=O)c1ccc(Nc2nc(C3CC3)c3ccccc3n2)cc1 [4-(4-cyclopropylquinazolin-2-ylamino)-N-(2,6-dimethylphenyl)benzamide]
2 | < 20 | Cc1nn(-c2ccccc2)c(C)c1C=NN1CCN(Cc2ccccc2)CC1 [4-benzyl-N-((3,5-dimethyl-1-phenyl-1H-pyrazol-4-yl)methylene)piperazin-1-amine]
3 | < 100 | COc1ccc(-c2cc(C3CC3)nc(SCC(C)=O)c2C#N)cc1 [6-cyclopropyl-4-(4-methoxyphenyl)-2-(2-oxopropylthio)nicotinonitrile]
4 | 200 | CCCCCc1ccc(-c2ccc(/C=C/C(=O)N3CCCCC3)cc2)nc1 [(E)-3-(4-(5-pentylpyridin-2-yl)phenyl)-1-(piperidin-1-yl)prop-2-en-1-one]
5 | 5.8 | CN1CCCc2ccc(NC(=O)c3ccc(Nc4nc(-c5ccccc5)c5ccccc5n4)cc3)cc21 [N-(1-methyl-1,2,3,4-tetrahydroquinolin-7-yl)-4-(4-phenylquinazolin-2-ylamino)benzamide]
6 | 3.6 | Cc1cccc(C)c1NC(=O)c1ccc(Nc2nc(-c3ccccc3)c3cccnc3n2)cc1 [N-(2,6-dimethylphenyl)-4-(4-phenylpyrido[2,3-d]pyrimidin-2-ylamino)benzamide]
7 | 30 | CCOc1cc(C(=O)Nc2ccc(Cl)c(-c3nc4ccccc4[nH]3)c2)cc(OCC)c1OCC [N-(3-(1H-Benzo[d]imidazol-2-yl)-4-chlorophenyl)-3,4,5-triethoxybenzamide]

Target: T1, Zinc finger protein GLI1 (Homo sapiens, UniProt P08151)
T1 sequence (P08151 whole entry): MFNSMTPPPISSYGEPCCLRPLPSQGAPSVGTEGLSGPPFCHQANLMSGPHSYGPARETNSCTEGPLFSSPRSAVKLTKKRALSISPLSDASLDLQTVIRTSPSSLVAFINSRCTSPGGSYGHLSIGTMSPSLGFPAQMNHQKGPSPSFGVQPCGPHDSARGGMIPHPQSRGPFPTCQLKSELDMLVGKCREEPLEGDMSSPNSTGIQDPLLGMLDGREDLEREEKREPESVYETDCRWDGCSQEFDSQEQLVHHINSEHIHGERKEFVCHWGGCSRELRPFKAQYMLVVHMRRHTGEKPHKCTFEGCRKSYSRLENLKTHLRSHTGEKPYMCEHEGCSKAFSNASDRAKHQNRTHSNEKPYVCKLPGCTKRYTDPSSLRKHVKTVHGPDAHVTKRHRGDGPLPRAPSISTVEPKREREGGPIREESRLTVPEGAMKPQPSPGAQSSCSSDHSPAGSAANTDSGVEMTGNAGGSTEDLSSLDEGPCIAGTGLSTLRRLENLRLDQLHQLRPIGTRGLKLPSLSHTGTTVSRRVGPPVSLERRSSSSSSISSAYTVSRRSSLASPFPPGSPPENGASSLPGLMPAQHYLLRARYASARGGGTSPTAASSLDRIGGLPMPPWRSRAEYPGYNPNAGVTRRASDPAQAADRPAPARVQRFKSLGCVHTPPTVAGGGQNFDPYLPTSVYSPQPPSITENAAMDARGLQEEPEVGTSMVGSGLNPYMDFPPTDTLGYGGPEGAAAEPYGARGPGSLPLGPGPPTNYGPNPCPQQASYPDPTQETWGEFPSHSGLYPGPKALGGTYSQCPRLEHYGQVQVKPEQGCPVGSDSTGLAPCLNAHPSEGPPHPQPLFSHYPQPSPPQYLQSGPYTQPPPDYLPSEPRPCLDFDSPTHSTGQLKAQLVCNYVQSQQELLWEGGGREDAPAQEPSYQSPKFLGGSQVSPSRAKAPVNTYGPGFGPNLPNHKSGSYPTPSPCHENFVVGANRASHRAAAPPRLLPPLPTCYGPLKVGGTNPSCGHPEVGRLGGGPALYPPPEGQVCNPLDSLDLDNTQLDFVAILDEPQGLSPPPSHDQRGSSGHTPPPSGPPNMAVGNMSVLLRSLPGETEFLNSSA
Assay: Inhibition of Gli1-mediated transcription expressed in human PANC1 cells

Row | SMILES | IC50 [nM]
8 | O=C1NCc2c1c1c3ccccc3[nH]c1c1[nH]c3ccccc3c21 | 1800
9 | C[C@]12C(=O)C=CCC1=CC[C@@H]1[C@@H]2CC[C@]2(O)C(=O)O[C@@]3(C)[C@H]4C[C@]5(C)[C@@H](CO[C@@]16O[C@@]32[C@H]5C6=O)C(=O)O4 [NSC-287088] | 620
10 | C[C@@]12C[C@H]3OC(=O)[C@@H]1CO[C@]14O[C@]5([C@H]2C1=O)[C@@](O)(CC[C@H]1[C@H]4C[C@H]2O[C@]24CC=CC(=O)[C@]14C)C(=O)O[C@@]35C [PHYSALIN F] | 660
11 | C/C1=C\CC(C)(C)/C=C/C(=O)/C(C)=C/CC1 [Zerumbone] | 7100

Target: Sonic hedgehog protein (Homo sapiens, UniProt Q15465)
Sequence (Q15465 24-197 limits assumed): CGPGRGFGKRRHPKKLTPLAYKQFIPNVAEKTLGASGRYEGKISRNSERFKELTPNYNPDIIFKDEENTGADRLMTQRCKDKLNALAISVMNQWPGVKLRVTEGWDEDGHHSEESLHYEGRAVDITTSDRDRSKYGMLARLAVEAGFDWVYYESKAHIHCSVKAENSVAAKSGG
Assay: Inhibition of lipid-modified (octylated) form of SHH expressed in mouse s12 cells by luciferase reporter gene assay

Row | SMILES | IC50 [nM]
12 | CC1=C2C(=O)[C@H]3[C@@H](CC=C4C[C@@H](O)CC[C@@]43C)[C@@H]2CC[C@]12O[C@@H]1C[C@H](C)CN[C@H]1[C@H]2C [5'-hydroxy-2',3,6,15'-tetramethyl-(1'S,2'R,2'R,3R,3aS,5'S,6S,7aR,10'S,11'S)-spiro[perhydrofuro[3,2-b]pyridine-2,14'-tetracyclo[8.7.0.02,7.011,16]heptadeca-7',15'-diene]-17'-one] | 500
13 | COc1cccc(CN(C(=O)CC(C)(C)C)[C@H]2C[C@@H](C(=O)N3CCNCC3)N(Cc3ccc4c(c3)OCO4)C2)c1 [N-((3S,5S)-1-(benzo[d][1,3]dioxol-5-ylmethyl)-5-(piperazine-1-carbonyl)pyrrolidin-3-yl)-N-(3-methoxybenzyl)-3,3-dimethylbutanamide] | 100

Target: Zinc finger protein GLI2 (Homo sapiens, UniProt P10070)
Sequence (P10070 whole entry): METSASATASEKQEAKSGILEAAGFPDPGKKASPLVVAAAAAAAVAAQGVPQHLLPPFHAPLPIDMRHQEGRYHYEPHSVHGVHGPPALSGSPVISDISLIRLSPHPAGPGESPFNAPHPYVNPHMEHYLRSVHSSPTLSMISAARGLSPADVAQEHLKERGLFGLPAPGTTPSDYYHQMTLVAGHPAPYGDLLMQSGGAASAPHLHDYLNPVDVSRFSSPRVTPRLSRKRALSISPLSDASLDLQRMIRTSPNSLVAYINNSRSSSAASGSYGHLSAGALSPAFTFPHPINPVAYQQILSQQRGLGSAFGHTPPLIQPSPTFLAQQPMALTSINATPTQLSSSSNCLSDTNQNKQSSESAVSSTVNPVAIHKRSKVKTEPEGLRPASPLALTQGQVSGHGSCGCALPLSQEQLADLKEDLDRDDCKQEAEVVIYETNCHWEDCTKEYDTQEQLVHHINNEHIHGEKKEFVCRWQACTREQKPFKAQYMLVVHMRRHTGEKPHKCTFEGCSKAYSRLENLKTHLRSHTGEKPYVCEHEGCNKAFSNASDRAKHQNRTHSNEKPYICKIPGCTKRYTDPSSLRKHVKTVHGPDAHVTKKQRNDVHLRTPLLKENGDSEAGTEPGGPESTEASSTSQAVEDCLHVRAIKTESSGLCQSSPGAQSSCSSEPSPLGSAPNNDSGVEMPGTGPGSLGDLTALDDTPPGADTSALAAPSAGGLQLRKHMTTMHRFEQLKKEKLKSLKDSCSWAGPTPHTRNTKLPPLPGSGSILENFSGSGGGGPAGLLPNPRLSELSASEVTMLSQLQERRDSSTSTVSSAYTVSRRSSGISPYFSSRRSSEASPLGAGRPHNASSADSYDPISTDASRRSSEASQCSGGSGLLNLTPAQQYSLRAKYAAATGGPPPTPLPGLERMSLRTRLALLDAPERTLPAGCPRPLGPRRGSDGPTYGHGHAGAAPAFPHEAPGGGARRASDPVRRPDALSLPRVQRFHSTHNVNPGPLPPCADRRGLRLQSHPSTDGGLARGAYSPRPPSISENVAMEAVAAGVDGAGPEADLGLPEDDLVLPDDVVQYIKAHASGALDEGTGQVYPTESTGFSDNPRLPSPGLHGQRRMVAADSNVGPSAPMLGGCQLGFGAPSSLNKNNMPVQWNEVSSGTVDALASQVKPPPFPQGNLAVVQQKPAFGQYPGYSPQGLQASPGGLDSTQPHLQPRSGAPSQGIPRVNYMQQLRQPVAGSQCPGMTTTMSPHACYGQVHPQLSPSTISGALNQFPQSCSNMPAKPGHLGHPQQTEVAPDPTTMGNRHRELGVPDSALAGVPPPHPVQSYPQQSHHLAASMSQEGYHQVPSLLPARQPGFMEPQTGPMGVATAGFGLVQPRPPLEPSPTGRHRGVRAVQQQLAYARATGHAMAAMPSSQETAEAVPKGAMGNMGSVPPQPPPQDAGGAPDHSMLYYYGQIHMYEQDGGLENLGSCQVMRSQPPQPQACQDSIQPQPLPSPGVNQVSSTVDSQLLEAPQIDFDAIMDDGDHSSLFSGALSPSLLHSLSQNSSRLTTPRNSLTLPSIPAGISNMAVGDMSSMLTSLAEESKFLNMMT
Assay: Inhibition of Gli2-mediated transcription expressed in human PANC1 cells

Row | SMILES | IC50 [nM]
14 | O=C1NCc2c1c1c3ccccc3[nH]c1c1[nH]c3ccccc3c21 | 2700
15 | C/C1=C\CC(C)(C)/C=C/C(=O)/C(C)=C/CC1 [Zerumbone] | 910

Target: Sonic hedgehog protein (Mus musculus, UniProt Q62226)
Sequence (Q62226 25-198 limits assumed): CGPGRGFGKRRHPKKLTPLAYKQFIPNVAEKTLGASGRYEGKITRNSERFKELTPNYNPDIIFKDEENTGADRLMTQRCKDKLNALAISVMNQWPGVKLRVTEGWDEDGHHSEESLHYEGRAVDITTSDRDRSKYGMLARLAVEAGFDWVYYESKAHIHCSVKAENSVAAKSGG
Assay: Inhibition of SHH in mouse Shh Light2 cells by GLI-responsive firefly luciferase reporter gene assay

Row | IC50 [nM] | SMILES | EC50 [nM]
16 |  | CC1=C2C[C@H]3[C@@H](CC=C4C[C@@H](O)CC[C@@]43C)[C@@H]2CC[C@]12O[C@@H]1C[C@H](C)CN[C@H]1[C@H]2C | 500
17 | 100 | CC(=O)c1cccc(Nc2nc(-c3ccccc3)cs2)c1 [1-(3-(4-phenylthiazol-2-ylamino)phenyl)ethanone] | 
18 | 5000 | CN(C)c1ccccc1CN1CCCN(Cc2ccccc2N(C)C)C1c1ccncc1 [2-((3-(2-(dimethylamino)benzyl)-2-(pyridin-4-yl)-tetrahydropyrimidin-1(2H)-yl)methyl)-N,N-dimethylbenzenamine] | 
19 | 3 | CS(=O)(=O)c1ccc(C(=O)Nc2ccc(Cl)c(-c3ccccn3)c2)c(Cl)c1 [2-chloro-N-(4-chloro-3-(pyridin-2-yl)phenyl)-4-(methylsulfonyl)benzamide] | 
20 | 5000 | c1cc(-c2sc(-c3ccncc3)c(-c3ccncc3)c2-c2ccncc2)ccn1 [4-(3,4,5-tri(pyridin-4-yl)thiophen-2-yl)pyridine] | 
21 | 100 | Cc1nc2ccccn2c1-c1csc(NC(=O)c2ccc3ccccc3c2)n1 [N-(4-(2-methylimidazo[1,2-a]pyridin-3-yl)thiazol-2-yl)-2-naphthamide] | 
22 |  | COc1cc(OC)cc(C(=O)Nc2ccc(Cl)c(-c3nc4ccc(N(C)C)cc4[nH]3)c2)c1 [N-(4-chloro-3-(5-(dimethylamino)-1H-benzo[d]imidazol-2-yl)phenyl)-3,5-dimethoxybenzamide] | 40
23 | 30 | CCOc1ccc(Nc2nc(-c3c(C)nc4ccccn34)cs2)cc1 [N-(4-ethoxyphenyl)-4-(2-methylimidazo[1,2-a]pyridin-3-yl)thiazol-2-amine] | 
24 | 100 | COc1ccc(Cl)cc1Nc1nc(-c2cccnc2)cs1 [N-(5-chloro-2-methoxyphenyl)-4-(pyridin-3-yl)thiazol-2-amine] | 
